Assay [1] relates to MCF-7 cells. The experiment in a line: Comet assay (DNA damage). The note with it: 24 h. In kind it is cell-based, human. As for the experimental part: DNA fragmentation is a hallmark of apoptosis, mitotic catastrophe, or both. DNA damage in MCF-7 cells was investigated by single-cell gel electrophoresis in an agarose gel matrix (the ‘comet assay’). In this assay, the length of the ‘comet tail’ observed after EB staining of the cell nuclei is an indicator of the extent of DNA damage.
MCF-7 cells were seeded in 24-well plastic plates at a density of 5 × 10^4 cells per well and treated with compound E10 for 24 h. The alkaline DNA comet assay was performed according to the instructions of the OxiSelectTM Comet Assay Kit (Cell Biolabs, San Diego, CA, USA, Cat. # STA-350) and analyzed using a Zeiss fluorescent microscope (Jena, Germany). The free software Casplab-1.2.3b2 (CAS PLab, Wroclaw, Poland) was used to calculate the percentage of tail DNA and Olive Tail Moment (OTM) as markers of DNA damage (Olive Tail Moment = Tail DNA (%) × Tail Moment Length).

For assay [2], the system named is MCF-7. As to the kind of experiment: CCK-8 antiproliferative assay, MCF-7. The note with it: Homo sapiens, MCF7; CCK-8, 48 h, mean ± SD of three experiments; read-out: IC50 MCF-7. In kind it is cell-based. As for the experimental part: After synthesis and characterization, the isolongifolenone bicyclocaprolactam derivatives were evaluated for their in vitro antiproliferative activity against three cancer cell lines (MCF-7, HepG2, A549) using a CCK-8 assay. […] In general, the antiproliferative activities of most of these compounds were similar, irrespective of whether electron-withdrawing or electron-donating substituents were introduced in the phenoxy ring.
(§1) Three cancer cell lines (human breast adenocarcinoma cells MCF-7, human lung adenocarcinoma epithelial cells A549, and human hepatocellular carcinoma cells HepG2) were obtained from the Cell Bank of the Chinese Academy of Sciences (Shanghai, China). LO2 human normal liver cells were also purchased from STEM RECELL (Beijing, China, STM-CL-5770). The anti-proliferation activity of compounds was tested on three cancer cell lines. The cytotoxicity of compounds as tested on normal cell line (human normal liver cells LO2). Cells were seeded at a density of 5000 cells per well in 96-well plates. Natural product piperlongumine was used as the positive control. All experiments were performed in triplicate. Three cancer cell lines were cultured in High DMEM medium or RIPM 1640 containing 10% FBS (Sijiqing, Hangzhou, China) and 1% antibiotics at 37 °C in a 5% CO2 incubator. The experimental cells were seeded in a 96-well plate at 5000 cells per well and incubated for 24 h. The old medium was replaced with experimental medium, and the cells were cultured for 48 h. Afterward, 10 µL of CCK-8 solution was added to each well, and the cells were incubated for 3 h. The absorbance at 450 nm was measured using a microplate reader.
(Tetrazolium assays rely on reduction of a dye to a coloured formazan, in cell work by metabolically active cells.)

Assay [3] relates to MCF-7 cells. As to the kind of experiment: Western blotting of autophagy, AMPK-mTOR and apoptosis proteins. It is filed as cell-based, human. On the procedure:
MCF-7 exponentially growing cells were plated in 6-well plates (2 × 10^5 cells/well). Then, derivatives E10 (0.5, 1.0 and 2.0 μM) were added to the well. After incubation for an additional 48 h, the cell culture medium was removed, and the cells were washed twice with ice-cold PBS. Subsequently, the cells were lysed to extract the total protein and centrifuged at 12,000 rpm for 5 min at 4 °C using lysis buffer (Beyotime, Shanghai, China, Cat. # P0013E). All protein concentrations were determined using a BCA kit. Equal amounts of protein (20–30 µg per lane) were loaded onto the gel. An equal amount of protein was analyzed using 12% SDS-PAGE gels and transferred to Hybond-P membrane containing polyvinylidene difluoride (PVDF). The membranes were then blocked with BSA for 2 h at room temperature and incubated with primary antibodies against p-mTOR (ImmunoWay Biotechnology, Beijing, China, YP1444, 1:5000), P62 (Proteintech Group, Inc., Wuhan, China, 60268-1-IG, 1:5000), LC3-I/II (Proteintech Group, Inc., Wuhan, China, 10253-2-AP, 1:5000) and p-AMPK, AMPK, Bcl-2, Bax, Cleaved-caspase 7 (ImmunoWay Biotechnology, Beijing, China, YP0251, 1:5000) overnight at 4 °C and with secondary antibodies (AP-conjugated goat anti-rabbit or anti-mouse, 1:10,000) for 2 h. Densitometry was performed in ImageJ 2 within the linear range. Targets were normalized to β-actin (or to the corresponding total protein for phospho-target), then expressed relative to vehicle (0.1% DMSO = 1.0). Where indicated, ratios such as LC3-II/LC3-I and Bax/Bcl-2 were calculated per lane before statistics.
(In general: In western blotting, separated proteins are transferred to a membrane and probed.)

The subject of assay [4] is MCF-7 cells. The experiment in a line: MMP assay (JC-1, flow cytometry). In kind it is cell-based, human. The conditions noted are these: 24 h. As for the experimental part: If intracellular ROS levels rise above a certain threshold, the mitochondria may become damaged. […] In these experiments, MCF-7 cells were incubated with E10 for 24 h, and mitochondrial membrane potential (MMP) was then evaluated by flow cytometry using JC-1 as an indicator. […] These changes in the red/green fluorescence ratio are indicative of mitochondrial depolarization, a decrease in mitochondrial function, and potentially damage to mitochondria.
MCF-7 cells were treated with different concentrations of compound E10 for 24 h. After that, the cells were collected and stained with JC-1 (Yeasen, Shanghai, China, 40706ES60) for 15 min. The cell samples were detected by flow cytometry (BD) and the data were analyzed by flowjo 10.6 software.

In assay [5] the test system is MCF-7 cells. The experiment in a line: Cell cycle assay (PI, flow cytometry). In kind it is cell-based, human. The conditions noted are these: 0.5, 1.0, 2.0 µM, 24 h. On the procedure: As a cell progresses into different cell cycle phases, its DNA content varies because of DNA synthesis (which is required to prepare additional chromosome copies prior to cell division). Consequently, a flow cytometric analysis of DNA content can provide information on the number of cells in different cell cycle phases.
For cell cycle analysis, MCF-7 cells were seeded at a density of 2 × 10^5 cells per well in 6-well plates. MCF-7 cells were treated with different concentrations of compound E10 for 24 h. After that, the cells were washed with PBS twice, collected by trypsin enzymic digestion and centrifugation, and the collected cells were subsequently fixed with 70% ice-cold ethanol overnight at 4 °C. The cells were stained with PI (50 μg/mL) the next day. The cell cycle distributions were measured through flow cytometry (BD), and the data were analyzed by Modfit 5.1 software.

Assay [6] has as its system LO2. The experiment in a line: CCK-8 cytotoxicity on normal cell line LO2. The conditions noted are these: Homo sapiens, L02; normal liver cells, CCK-8, 48 h, mean ± SD of three experiments. In kind it is cell-based. As for the experimental part:
as §1

Data on one compound can be found in PMC12526212, “Novel Isolongifolenone-Based Caprolactam Derivatives as Potential Anticancer Agents via the p53/mTOR/Autophagy Pathway” (Molecules, 2025).

For `CC1(C)C2=CC(=O)N(C(=O)C=Cc3cccc(C(F)(F)F)c3)CC(C)(C)C23CCC1C3` (centres unmarked) [E10, 5,5,9,9-Tetramethyl-3-(3-(3-(trifluoromethyl)phenyl)acryloyl)-4,5,6,7,8,9-hexahydro-5a,8-methanobenzo[d]azepin-2(3H)-one], the “DNA damage, comet formation” value in assay [1] was “induced DNA fragmentation”. The IC50 (usually the concentration needed to halve the response being measured) in assay [2] is 0.32 ± 0.05 µM. For the same compound, in assay [3] (E10 0.5, 1.0, 2.0 μM), the AMPK phosphorylation levels entry is reported as “increased”, the mTOR phosphorylation levels entry was “strongly decreased” and the p62 expression entry is listed as “decrease”. Also, in assay [3] (after E10 treatment), the “LC3-I and LC3-II expression levels” value was “up-regulated”. Besides, in assay [3] (compared with control), the Bax expression entry was “higher levels” and the Bcl-2 expression result is on record as “down-regulated”. In assay [3] (dose-dependent), the “cleaved caspase-7 expression” value is on record as “dramatically up-regulated” and the p53 expression entry is given as “dramatically up-regulated”. For the same compound, the “ratio of LC3-II/LC3-I” value in assay [3] (increasing concentrations of E10 (0.5, 1.0, 2.0 μM)) is “increased gradually”. Further, the “mitochondrial membrane potential” value in assay [4] is “concentration-dependent reduction in MMP”. In assay [5], the “effect on cell cycle” value is on record as “cell cycle arrest at the G0/G1 phase”. The compound also yielded an IC50 in assay [6] of 14.41 ± 0.04 µM.
